This assay has as its target T1, human M1 receptor (hCHRM1) (Homo sapiens, UniProt P11229).
T1 construct: expressed in transfected cells; host or cells: CHO-K1
T1 sequence (P11229 1-460): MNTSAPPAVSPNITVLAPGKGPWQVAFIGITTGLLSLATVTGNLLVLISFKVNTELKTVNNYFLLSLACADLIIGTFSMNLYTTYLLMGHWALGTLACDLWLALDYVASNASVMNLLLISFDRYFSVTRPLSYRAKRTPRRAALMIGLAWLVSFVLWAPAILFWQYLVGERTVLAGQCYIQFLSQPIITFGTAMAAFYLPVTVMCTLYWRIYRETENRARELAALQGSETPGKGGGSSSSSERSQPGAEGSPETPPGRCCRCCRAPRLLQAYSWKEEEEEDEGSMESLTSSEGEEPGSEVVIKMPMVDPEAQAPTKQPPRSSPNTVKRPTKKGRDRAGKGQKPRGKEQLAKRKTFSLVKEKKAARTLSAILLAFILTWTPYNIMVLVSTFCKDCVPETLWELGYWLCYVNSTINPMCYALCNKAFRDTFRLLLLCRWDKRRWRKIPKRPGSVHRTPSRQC
The experiment in a line: Measurement of M1 receptor positive allosteric modulator (M1PAM) activity, calcium fluorescence (FLIPRtetra) in CHO-K1 cells in the presence of acetylcholine at EC20. The assay is classed as cell-based. To be noted: in the presence of acetylcholine at EC20 (final 0.6 nM), CHO-K1 cells expressing hCHRM1; for EC50: inflection point of M1PAM activity, read-out: IP value; for activity (%) at 10 μM: test compound 10 μM. The gist of the method: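 CHO-K1 cells expressing human M1 were loaded with Fluo-4 AM, and compound was added with acetylcholine at EC20 (final 0.6 nM). Calcium fluorescence was read on FLIPRtetra for 1 min. Activity was normalized to 1 μM acetylcholine (100%) and DMSO (0%), and the curve inflection point was reported as IP.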

We go through 26 molecules from patent US9777005B2 (Takeda Pharmaceutical Company Limited, priority 2012, dated 2017).

As to `CCCc1ccc(Oc2nccc3c2C(=O)N(Cc2ccc(C(N)=O)c(F)c2)C3)c(F)c1` [Example 452, 2-fluoro-4-((4-(2-fluoro-4-propylphenoxy)-3-oxo-1,3-dihydro-2H-pyrrolo[3,4-c]pyridin-2-yl)methyl)benzamide], the EC50 was 45 nM and the “activity (%) at 10 μM” value is given as 102%.

With `Cc1nn(C)cc1-c1ccc(CN2Cc3ncnc(Oc4c(F)cccc4F)c3C2=O)c(F)c1` [Example 372, 4-(2,6-difluorophenoxy)-6-(4-(1,3-dimethyl-1H-pyrazol-4-yl)-2-fluorobenzyl)-6,7-dihydro-5H-pyrrolo[3,4-d]pyrimidin-5-one], the EC50 is 46 nM and the “activity (%) at 10 μM” value worked out at 109%.

With `CCCc1ccc(Oc2nccc3c2C(=O)N(Cc2ccc(C(=O)NC)cc2)C3)c(F)c1` [Example 451, 4-((4-(2-fluoro-4-propylphenoxy)-3-oxo-1,3-dihydro-2H-pyrrolo[3,4-c]pyridin-2-yl)methyl)-N-methylbenzamide], the EC50 came to 11 nM and the “activity (%) at 10 μM” value came to 105%.

Turning to `Cn1ccc(-c2ccc(CN3Cc4ccnc(OCc5ccccc5F)c4C3=O)c(F)c2)n1` [Example 342, 4-((2-fluorobenzyl)oxy)-2-(2-fluoro-4-(1-methyl-1H-pyrazol-3-yl)benzyl)-1,2-dihydro-3H-pyrrolo[3,4-c]pyridin-3-one], the EC50 worked out at 73 nM and the “activity (%) at 10 μM” value is 96%.

For `Cn1cc(-c2ccc(CN3Cc4ccnc(Oc5ccc(C(C)(C)O)cc5F)c4C3=O)cc2)cn1` [Example 408, 4-(2-fluoro-4-(2-hydroxypropan-2-yl)phenoxy)-2-(4-(1-methyl-1H-pyrazol-4-yl)benzyl)-1,2-dihydro-3H-pyrrolo[3,4-c]pyridin-3-one], the EC50 was determined as 5.6 nM and the “activity (%) at 10 μM” value is given as 99%.

Turning to `Cn1cc(-c2ccc(CN3Cc4ccnc(OC5CCC5)c4C3=O)cc2)cn1` [Example 348, 4-(cyclobutyloxy)-2-(4-(1-methyl-1H-pyrazol-4-yl)benzyl)-1,2-dihydro-3H-pyrrolo[3,4-c]pyridin-3-one], the EC50 turned out to be 74 nM and the “activity (%) at 10 μM” value stood at 97%.

With `O=C1c2c(cccc2O[C@H]2CCCC[C@@H]2O)CN1Cc1ccc(-c2ccnn2C2CCCCO2)cc1` (relative stereo) [Example 30, 7-((trans-2-hydroxycyclohexyl)oxy)-2-(4-(1-(tetrahydro-2H-pyran-2-yl)-1H-pyrazol-5-yl)benzyl)isoindolin-1-one], the EC50 is 190 nM and the “activity (%) at 10 μM” value stood at 104%.

Take `O=C1c2c(cccc2Oc2c(F)cccc2Cl)CN1Cc1ccc(-c2ccnnc2)cc1` [Example 81, 7-(2-chloro-6-fluorophenoxy)-2-(4-(pyridazin-4-yl)benzyl)isoindolin-1-one]: the EC50 is 170 nM and the “activity (%) at 10 μM” value was 57%.

`O=C1c2c(cccc2O[C@@H]2COCC[C@H]2O)CN1Cc1ccc(F)cc1F` (single isomer, unassigned) [Example 301, 1,5-anhydro-2-deoxy-4-O-(2-(2,4-difluorobenzyl)-3-oxo-2,3-dihydro-1H-isoindol-4-yl)-threo-pentitol]: the EC50 was 120 nM and the “activity (%) at 10 μM” value stood at 89%.

On to `O=C1c2c(ccnc2O[C@H]2CCCC[C@@H]2O)CN1Cc1cccs1` (relative stereo) [Example 399, 4-((trans-2-hydroxycyclohexyl)oxy)-2-(2-thienylmethyl)-1,2-dihydro-3H-pyrrolo[3,4-c]pyridin-3-one], for which the EC50 came to 97 nM and the “activity (%) at 10 μM” value was found to be 94%.

Turning to `CCc1ccc(Oc2nccc3c2C(=O)N(Cc2ccc(C(=O)NC)cc2)C3)c(F)c1` [Example 444, 4-((4-(4-ethyl-2-fluorophenoxy)-3-oxo-1,3-dihydro-2H-pyrrolo[3,4-c]pyridin-2-yl)methyl)-N-methylbenzamide], the EC50 worked out at 17 nM and the “activity (%) at 10 μM” value came to 100%.

With `Cn1cc(-c2ccc(CN3Cc4ccnc(OCC5CCCO5)c4C3=O)cc2)cn1` (stereo not shown) [Example 285], the EC50 came out at 10 nM and the “activity (%) at 10 μM” value came out at 95%.

As to `NC(=O)c1ccc(CN2Cc3ccnc(Oc4ccc(CC(F)(F)F)cc4F)c3C2=O)cc1F` [Example 459, 2-fluoro-4-((4-(2-fluoro-4-(2,2,2-trifluoroethyl)phenoxy)-3-oxo-1,3-dihydro-2H-pyrrolo[3,4-c]pyridin-2-yl)methyl)benzamide], the EC50 was found to be 32 nM and the “activity (%) at 10 μM” value was determined as 93%.

For the molecule `Cc1ccn(-c2ccc(CN3Cc4cccc(O[C@H]5CCC[C@@H]5O)c4C3=O)cc2)n1` (relative stereo) [Example 40, 7-((trans-2-hydroxycyclopentyl)oxy)-2-(4-(3-methyl-1H-pyrazol-1-yl)benzyl)isoindolin-1-one], the EC50 was determined as 64 nM and the “activity (%) at 10 μM” value is recorded as 117%.

In the case of `Cc1cc(-c2ccc(CN3Cc4ccnc(OCC5CCOC5)c4C3=O)cc2)ccn1.Cl` (stereo not shown) [Example 266, 2-(4-(2-methylpyridin-4-yl)benzyl)-4-((tetrahydrofuran-3-yl)methoxy)-1,2-dihydro-3H-pyrrolo[3,4-c]pyridin-3-one hydrochloride], the EC50 was 45 nM and the “activity (%) at 10 μM” value is given as 100%.

For the molecule `Cc1nn(C)cc1-c1ccc(CN2Cc3ccnc(OCC4CCCCO4)c3C2=O)cc1` (stereo not shown) [Example 252, 2-(4-(1,3-dimethyl-1H-pyrazol-4-yl)benzyl)-4-((tetrahydro-2H-pyran-2-yl)methoxy)-1,2-dihydro-3H-pyrrolo[3,4-c]pyridin-3-one], the EC50 was 7.6 nM and the “activity (%) at 10 μM” value is listed as 99%.

Regarding `Cn1ccc(-c2ccc(CN3Cc4cccc(O[C@@H]5CCOC[C@H]5O)c4C3=O)cc2)n1` [Example 272, 1,5-anhydro-2-deoxy-3-O-(2-(4-(1-methyl-1H-pyrazol-3-yl)benzyl)-3-oxo-2,3-dihydro-1H-isoindol-4-yl)-threo-pentitol], the EC50 worked out at 6.5 nM and the “activity (%) at 10 μM” value amounted to 107%.

Regarding `Cn1cc(-c2ccc(CN3Cc4cccc(OCCO)c4C3=O)cc2)cn1` [Example 17, 7-(2-hydroxyethoxy)-2-(4-(1-methyl-1H-pyrazol-4-yl)benzyl)isoindolin-1-one], the EC50 worked out at 120 nM and the “activity (%) at 10 μM” value worked out at 118%.

On to `Cn1cc(-c2cccc(CN3Cc4cccc(O[C@H]5CCCC[C@@H]5O)c4C3=O)c2)cn1` (relative stereo) [Example 39, 7-((trans-2-hydroxycyclohexyl)oxy)-2-(3-(1-methyl-1H-pyrazol-4-yl)benzyl)isoindolin-1-one], for which the EC50 was 58 nM and the “activity (%) at 10 μM” value worked out at 97%.

For the molecule `Cn1cc(-c2ccc(CN3Cc4cccc(OCCN5CCC(F)(F)CC5)c4C3=O)cc2)cn1` [Example 18, 7-(2-(4,4-difluoropiperidin-1-yl)ethoxy)-2-(4-(1-methyl-1H-pyrazol-4-yl)benzyl)isoindolin-1-one], the EC50 came out at 60 nM and the “activity (%) at 10 μM” value was 107%.

Regarding `Cn1cc(-c2ccc(CN3Cc4ncnc(Oc5ccc(C(F)F)cc5F)c4C3=O)cc2)cn1` [Example 307, 4-(4-(difluoromethyl)-2-fluorophenoxy)-6-(4-(1-methyl-1H-pyrazol-4-yl)benzyl)-6,7-dihydro-5H-pyrrolo[3,4-d]pyrimidin-5-one], the EC50 worked out at 9.3 nM and the “activity (%) at 10 μM” value is given as 92%.

For the molecule `Cn1cc(-c2ccc(CN3Cc4ccnc(Oc5c(F)cccc5Cl)c4C3=O)cc2)cn1` [Example 397, 4-(2-chloro-6-fluorophenoxy)-2-(4-(1-methyl-1H-pyrazol-4-yl)benzyl)-1,2-dihydro-3H-pyrrolo[3,4-c]pyridin-3-one], the EC50 was 25 nM and the “activity (%) at 10 μM” value was determined as 95%.

For `O=C1c2c(ccnc2OCC2CCCO2)CN1Cc1ccc(-c2cnn3ccccc23)cc1` (stereo not shown) [Example 289, 2-(4-(pyrazolo[1,5-a]pyridin-3-yl)benzyl)-4-((tetrahydrofuran-2-yl)methoxy)-1,2-dihydro-3H-pyrrolo[3,4-c]pyridin-3-one], the EC50 amounted to 4.7 nM and the “activity (%) at 10 μM” value is given as 89%.

Take `Cc1nn(C)cc1-c1ccc(CN2Cc3ccnc(Oc4c(F)cccc4Cl)c3C2=O)c(F)c1` [Example 280, 4-(2-chloro-6-fluorophenoxy)-2-(4-(1,3-dimethyl-1H-pyrazol-4-yl)-2-fluorobenzyl)-1,2-dihydro-3H-pyrrolo[3,4-c]pyridin-3-one]: the EC50 amounted to 26 nM and the “activity (%) at 10 μM” value was 110%.

Consider `Cc1nn(C)cc1-c1ccc(CN2Cc3ccnc(OC4CCC4)c3C2=O)cc1` [Example 403, 4-(cyclobutyloxy)-2-(4-(1,3-dimethyl-1H-pyrazol-4-yl)benzyl)-1,2-dihydro-3H-pyrrolo[3,4-c]pyridin-3-one], for which the EC50 came out at 57 nM and the “activity (%) at 10 μM” value worked out at 102%.

For the molecule `O=C1c2c(cccc2O[C@H]2CCCC[C@@H]2O)CN1Cc1ccc(-n2cccn2)cc1` (relative stereo) [Example 29, 7-((trans-2-hydroxycyclohexyl)oxy)-2-(4-(1H-pyrazol-1-yl)benzyl)isoindolin-1-one], the EC50 was 7.5 nM and the “activity (%) at 10 μM” value was 89%.
